The results in this text go back to patent US9624155B2, “Iron (III) citrate, substantially free of beta-iron hydroxide oxide” (Japan Tobacco Inc., priority 2011, dated 2017).

The data set is described as follows: Specific surface area by nitrogen gas adsorption (BET). The class given is physicochemical. As to conditions: relative pressure 0.05 to 0.3 (BET surface area). How it is done:
A specific surface area can be measured by, for example, but is not limited to, BET surface area measurement via nitrogen gas adsorption (relative pressure: 0.05 to 0.3).
Specific surface areas of iron(III) citrates of Comparative Examples 11 and 12 and Examples 1, 4, 5, 6, 7, and 10 to 23 were measured by nitrogen gas adsorption (relative pressure: 0.05 to 0.3) (BET surface area).

`O=C([O-])CC(O)(CC(=O)[O-])C(=O)[O-].[Fe+3]` [Example 7, Iron(III) citrate] registered a Specific surface area of 29.8 m^2/g. Take `O=C([O-])CC(O)(CC(=O)[O-])C(=O)[O-].[Fe+3]` [Example 22, Iron(III) citrate]: the Specific surface area came to 32.6 m^2/g. The same measure for `O=C([O-])CC(O)(CC(=O)[O-])C(=O)[O-].[Fe+3]` [Example 15, Iron(III) citrate]: 38.5 m^2/g; for `O=C([O-])CC(O)(CC(=O)[O-])C(=O)[O-].[Fe+3]` [Example 11, Iron(III) citrate]: 30.0 m^2/g. For `O=C([O-])CC(O)(CC(=O)[O-])C(=O)[O-].[Fe+3]` [Example 18, Iron(III) citrate] the value was 39.9 m^2/g; for `O=C([O-])CC(O)(CC(=O)[O-])C(=O)[O-].[Fe+3]` [Example 4, iron(III) citrate], 33.4 m^2/g.

Regarding `O=C([O-])CC(O)(CC(=O)[O-])C(=O)[O-].[Fe+3]` [Comparative Example 12, iron(III) citrate], the Specific surface area amounted to 0.62 m^2/g. For `O=C([O-])CC(O)(CC(=O)[O-])C(=O)[O-].[Fe+3]` [Example 13, Iron(III) citrate], the Specific surface area is listed as 29.1 m^2/g.

Take `O=C([O-])CC(O)(CC(=O)[O-])C(=O)[O-].[Fe+3]` [Example 6, Iron(III) citrate]: the Specific surface area came out at 30.4 m^2/g. The same measure for `O=C([O-])CC(O)(CC(=O)[O-])C(=O)[O-].[Fe+3]` [Comparative Example 11, iron(III) citrate]: 0.80 m^2/g; for `O=C([O-])CC(O)(CC(=O)[O-])C(=O)[O-].[Fe+3]` [Example 19, Iron(III) citrate]: 39.8 m^2/g; for `O=C([O-])CC(O)(CC(=O)[O-])C(=O)[O-].[Fe+3]` [Example 16, Iron(III) citrate]: 33.7 m^2/g.

For the compound `O=C([O-])CC(O)(CC(=O)[O-])C(=O)[O-].[Fe+3]` [Example 21, Iron(III) citrate], the Specific surface area was found to be 35.5 m^2/g. `O=C([O-])CC(O)(CC(=O)[O-])C(=O)[O-].[Fe+3]` [Example 12, Iron(III) citrate]: the Specific surface area is listed as 30.3 m^2/g.

The compound `O=C([O-])CC(O)(CC(=O)[O-])C(=O)[O-].[Fe+3]` [Example 17, Iron(III) citrate] showed a Specific surface area of 32.4 m^2/g.

For `O=C([O-])CC(O)(CC(=O)[O-])C(=O)[O-].[Fe+3]` [Example 14, Iron(III) citrate], the Specific surface area is reported as 37.9 m^2/g. The compound `O=C([O-])CC(O)(CC(=O)[O-])C(=O)[O-].[Fe+3]` [Example 20, Iron(III) citrate] showed a Specific surface area of 33.8 m^2/g. For `O=C([O-])CC(O)(CC(=O)[O-])C(=O)[O-].[Fe+3]` [Example 1, iron(III) citrate] the value was 21.8 m^2/g; for `O=C([O-])CC(O)(CC(=O)[O-])C(=O)[O-].[Fe+3]` [Example 10, Iron(III) citrate], 29.9 m^2/g; for `O=C([O-])CC(O)(CC(=O)[O-])C(=O)[O-].[Fe+3]` [Example 5, Iron(III) citrate], 31.0 m^2/g. The same measure for `O=C([O-])CC(O)(CC(=O)[O-])C(=O)[O-].[Fe+3]` [Example 23, Iron(III) citrate]: 32.8 m^2/g.
